According to paper PMC10194703 (Nature structural & molecular biology, 2023):
Values joined by “and” are separate entries in the source; they are usually repeats but may differ in a detail not shown here. Identical values can stand only once.

Assays:
[1] = target: His6-C-linker-CNBD construct of SthK (residues 226-423); assay: SEC
[2] = target: His6-C-linker-CNBD construct of SthK (residues 226-423); assay: AFM imaging
SthK = conditions: cited from earlier work; for open probability Po: depolarized membrane potentials (+100 mV)
SthK CNBD [3] = assay: AFM single molecule force spectroscopy; assay type: binding; conditions: for Ka: individual binding sites, Ka=Ka(2D)mr, mr=0.03 binding-sites/nm^2; for Ka(2D): probabilistic binding frequency model fit, contact time 0.02-1.00 s
[4] = target: SthK full-length channels; conditions: read-out: affinity; SthK full-length channels in amphipol; cited from earlier work
His6-C-linker-CNBD = target: T1, His6-C-linker-CNBD (Winmispira thermophila, UniProt G0GA88); assay: microscale thermophoresis; assay type: binding; conditions: 50 nM labeled His6-C-linker-CNBD; cN 0.00305-100 μM
T1 sequence (G0GA88 226-423): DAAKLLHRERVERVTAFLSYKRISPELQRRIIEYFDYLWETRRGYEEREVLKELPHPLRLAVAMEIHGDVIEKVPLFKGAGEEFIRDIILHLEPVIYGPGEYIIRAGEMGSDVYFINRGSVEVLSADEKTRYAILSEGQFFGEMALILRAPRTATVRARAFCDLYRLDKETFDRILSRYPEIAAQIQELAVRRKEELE

SthK CNBD [5] = assay: joint Bell-Evans fitting of AFM-SMFS and MDS dynamic force spectra; conditions: Bell-Evans fit, AFM-SMFS + MDS joint data; 0.02 s bond formation
[6] = interchange between state 1 and state 2 bonds

Molecule	stoichiometry N [1]	stoichiometry N [2]	open probability Po (SthK)	bond formation time needed to fully populate state 2 (SthK CNBD [3])	Ka (SthK CNBD [3])	k1 (forward rate constant for entering the deeper binding mode) (SthK CNBD [3]; [6])	k−1 (reverse rate constant for entering the deeper binding mode) (SthK CNBD [3]; [6])	Ka(2D) (SthK CNBD [3]) [nm^2]	Kd [4] [nM]	Kd (His6-C-linker-CNBD) [nM]	fold lower open probability than cAMP (SthK; single channel recordings)	koff (SthK CNBD [3]; Bell-Evans fit, AFM-SMFS only, 0.02 s (20 ms) bond formation time) [s⁻¹]	kon(2D) (SthK CNBD [3]; kon(2D)=Ka(2D)koff) [nm^2/s]	kon (SthK CNBD [3]; molecular on rate, kon=Kakoff) [s⁻¹]	koff (SthK CNBD [5]) [s⁻¹]
His6-C-linker-CNBD construct of SthK (residues 226-423) (domain or fragment)	4	4													
Nc1ncnc2c1ncn2[C@@H]1O[C@@H]2COP(=O)(O)O[C@H]2[C@H]1O [cAMP, cyclic adenosine monophosphate]			~ 0.4	~ 0.2 s	0.31 ± 0.04	5.4 ± 0.7 1/s and 5.4±0.7 * 1/s	4.8 ± 0.8 1/s and 4.8±0.8 * 1/s	10.4 ± 1.3	600						
Nc1nc2c(ncn2[C@@H]2O[C@@H]3COP(=O)(O)O[C@H]3[C@H]2O)c(=O)[nH]1 [cGMP, cyclic guanosine monophosphate]			~ 0.001		0.15 ± 0.02			4.9 ± 0.5	2700	3300 ± 1800	~ 1000 fold	7.7 ± 1.5	37.8 ± 9.7	1.2 ± 0.3	13.9 ± 6.9
